Some test systems named below: A498; CCRF-CEM; HL-60; HOP-62; MDA-MB-231; MDA-MB-435; MOLT-4; NCI-H460; NCI-H522; NCI/ADR-RES; OVCAR-5; PC-3; RPMI-8226; SF-268; SK-MEL-5; SK-OV-3; SNB-19; SNB-75; SR; UO-31.
Common to all, as to test: NCI tumour cell line growth inhibition, 48 h

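In this assay, cells in 96-well plates receive the compound at five concentrations for 48 hours. Endpoints are linearly interpolated between the surrounding concentrations. At the GI50, growth is halved.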 The source made the active and inactive calls. Cut-off read from the data, not from the text of the source: active = GI50 up to about 1.1 µM and inactive = higher. Where a SMILES comes first, the peptide text is derived from it. [ ]: non-standard residue; d: D form. pGlu = O=C1CC[CH](C(=O)O)N1

Regarding `COc1cc2c(/C=C3/C(=O)N(c4ccccc4)c4ccccc43)c(Cl)[nH]c2cc1C`, the GI50 in the assay on A498 was 6.46 µM (inactive); with CCRF-CEM, 1.71 µM (inactive); in the assay with HL-60 it was 2.31 µM (inactive); in the assay on HOP-62, 3.07 µM (inactive); in the assay on MDA-MB-231, 3.21 µM (inactive); in the assay with MDA-MB-435 it was 0.998 µM (active). Further, the GI50 in the assay on MOLT-4 was 2.56 µM (inactive); with NCI-H460 it was 2.73 µM (inactive); with NCI-H522, 1.44 µM (inactive); in the assay with NCI/ADR-RES, 2.11 µM (inactive); with OVCAR-5, 3.45 µM (inactive); with PC-3 it was 2.94 µM (inactive). Moreover, the GI50 in the assay on RPMI-8226 was 1.34 µM (inactive); in the assay on SF-268, 3.47 µM (inactive); in the assay with SK-MEL-5, 2.32 µM (inactive); in the assay on SK-OV-3 it was 1.89 µM (inactive); with SNB-19, 4.55 µM (inactive); in the assay on SNB-75, 3.71 µM (inactive). For the same compound, the GI50 was 3.03 µM (inactive) in the assay with SR and 2.88 µM (inactive) with UO-31.

For `COc1ccc(OC2OC(COC(c3ccccc3)(c3ccc(OC)cc3)c3ccc(OC)cc3)C(O)C(O)C2O)cc1` (stereo not given), the GI50 in the assay with A498 is 11.7 µM (inactive); with CCRF-CEM it was 2.08 µM (inactive); in the assay with HL-60, 2.58 µM (inactive); in the assay on HOP-62, 11.4 µM (inactive); in the assay on MDA-MB-231, 4.6 µM (inactive); in the assay with MDA-MB-435, 3.13 µM (inactive). Also, the GI50 with MOLT-4 was 1.33 µM (inactive); with NCI-H460 it was 2.99 µM (inactive); in the assay on NCI-H522 it was 3.49 µM (inactive); in the assay with NCI/ADR-RES, 3.48 µM (inactive); in the assay on OVCAR-5, 6.25 µM (inactive); with PC-3, 2.09 µM (inactive). Further, the GI50 was 4.47 µM (inactive) with RPMI-8226; 3.39 µM (inactive) in the assay with SF-268; 5.06 µM (inactive) in the assay on SK-MEL-5; 6.43 µM (inactive) in the assay on SK-OV-3; 9.66 µM (inactive) with SNB-19; 3.32 µM (inactive) in the assay with SNB-75. Besides, the results for the GI50 with SR and in the assay on UO-31 were 3.74 µM (inactive) and 2.06 µM (inactive), respectively.

Take `COc1cc(/C=C/C(=O)c2c([O-])on[n+]2-c2ccccc2)ccc1O`: the GI50 in the assay with A498 is 7.46 µM (inactive); in the assay with CCRF-CEM, 1.37 µM (inactive); in the assay on HL-60, 0.853 µM (active); with HOP-62 it was 4.4 µM (inactive); in the assay on MDA-MB-231, 2.98 µM (inactive); in the assay with MDA-MB-435 it was 2.75 µM (inactive). The GI50 in the assay with MOLT-4 was 2.2 µM (inactive); in the assay on NCI-H460 it was 2.07 µM (inactive); in the assay with NCI-H522, 1.73 µM (inactive); with NCI/ADR-RES, 2.48 µM (inactive); with OVCAR-5, 11 µM (inactive); in the assay with PC-3, 6.58 µM (inactive). Moreover, the GI50 was 1.77 µM (inactive) with RPMI-8226; 3.89 µM (inactive) with SF-268; 3.78 µM (inactive) with SK-MEL-5; 3.73 µM (inactive) in the assay with SK-OV-3; 4.82 µM (inactive) in the assay on SNB-19; 2.5 µM (inactive) in the assay with SNB-75. Also, the GI50 in the assay on SR is 1.53 µM (inactive); with UO-31, 3.25 µM (inactive).

With `CNCCCNC1(c2cc3ccccc3s2)CCCCC1`, the GI50 in the assay on A498 was 3.37 µM (inactive); in the assay on CCRF-CEM, 1.66 µM (inactive); in the assay with HL-60, 1.43 µM (inactive); in the assay with HOP-62, 8.93 µM (inactive); with MDA-MB-231, 2.99 µM (inactive); with MDA-MB-435 it was 2.55 µM (inactive). Also, the GI50 is 1.94 µM (inactive) in the assay with MOLT-4; 2.86 µM (inactive) in the assay on NCI-H460; 5.64 µM (inactive) in the assay on NCI-H522; 14.9 µM (inactive) in the assay on NCI/ADR-RES; 14.3 µM (inactive) in the assay on OVCAR-5; 9.44 µM (inactive) in the assay with PC-3. Besides, the GI50 with RPMI-8226 is 2.04 µM (inactive); in the assay with SF-268, 11.3 µM (inactive); in the assay on SK-MEL-5 it was 2.21 µM (inactive); with SK-OV-3 it was 15.7 µM (inactive); in the assay with SNB-19, 12.1 µM (inactive); in the assay with SNB-75 it was 6.17 µM (inactive). In addition, the results for the GI50 in the assay with SR and in the assay on UO-31 were 1.52 µM (inactive) and 2.32 µM (inactive), respectively.

Regarding `Cc1cc2[nH]c(=NS(=O)(=O)c3cc(C)c(Cl)cc3S)[nH]c2cc1C`, the GI50 is > 100 µM (inactive) in the assay with A498; 21.4 µM (inactive) in the assay with CCRF-CEM; 28.7 µM (inactive) with HL-60; 23.1 µM (inactive) with HOP-62; > 100 µM (inactive) in the assay with MDA-MB-231; 65.5 µM (inactive) in the assay on MDA-MB-435. Moreover, the GI50 with MOLT-4 was 21.5 µM (inactive); in the assay with NCI-H460 it was 16.9 µM (inactive); with NCI-H522 it was > 100 µM (inactive); in the assay on NCI/ADR-RES, 91.4 µM (inactive); with OVCAR-5 it was > 100 µM (inactive); with PC-3, 66.4 µM (inactive). For the same compound, the GI50 in the assay on RPMI-8226 is 45.9 µM (inactive); with SF-268 it was 83.8 µM (inactive); with SK-MEL-5, 32.7 µM (inactive); in the assay on SK-OV-3, > 100 µM (inactive); in the assay on SNB-19 it was 56.6 µM (inactive); with SNB-75 it was > 100 µM (inactive). Further, the GI50 was 19.4 µM (inactive) in the assay with SR and 84.5 µM (inactive) with UO-31.

Regarding `O=[N+]([O-])c1ccc(C2Nn3c(nnc3-c3cccc([N+](=O)[O-])c3)S2)cc1` (stereo not given), the GI50 in the assay on A498 is > 100 µM (inactive); in the assay on CCRF-CEM it was 36.8 µM (inactive); in the assay on HL-60 it was 89.3 µM (inactive); with HOP-62 it was > 100 µM (inactive); with MDA-MB-231, > 100 µM (inactive); with MDA-MB-435 it was 51.5 µM (inactive). For the same compound, the GI50 was 37.8 µM (inactive) in the assay on MOLT-4; > 100 µM (inactive) in the assay with NCI-H460; > 100 µM (inactive) in the assay with NCI-H522; > 100 µM (inactive) in the assay with NCI/ADR-RES; > 100 µM (inactive) in the assay with OVCAR-5; > 100 µM (inactive) with PC-3. In addition, the GI50 in the assay with RPMI-8226 is 42.7 µM (inactive); with SF-268, > 100 µM (inactive); in the assay with SK-MEL-5 it was 53.6 µM (inactive); in the assay on SK-OV-3 it was > 100 µM (inactive); with SNB-19, > 100 µM (inactive); in the assay with SNB-75, > 100 µM (inactive). The GI50 with SR is 84.1 µM (inactive); in the assay with UO-31, > 100 µM (inactive).

Regarding `CC(NC(=O)C1CCC(=O)N1)C(=O)N1CCCC1C(N)=O` (stereo not drawn) ([pGlu]-Ala-Pro-NH2; configuration not given here), the GI50 in the assay on A498 is 31.5 µM (inactive); with CCRF-CEM, > 100 µM (inactive); in the assay on HL-60, > 100 µM (inactive); with HOP-62 it was > 100 µM (inactive); in the assay with MDA-MB-231 it was > 100 µM (inactive); with MDA-MB-435 it was > 100 µM (inactive). The GI50 with MOLT-4, in the assay with NCI-H460, in the assay with NCI-H522, in the assay with NCI/ADR-RES, in the assay on OVCAR-5 and in the assay on PC-3 was > 100 µM (inactive) in each case. The GI50 with RPMI-8226, in the assay on SF-268, in the assay with SK-MEL-5, in the assay with SK-OV-3, in the assay on SNB-19 and with SNB-75 was > 100 µM (inactive) throughout. The GI50 in the assay with SR and in the assay on UO-31 was > 100 µM (inactive) in each case.

As to `NCCCCNCCCN1CCOC1=O`, the GI50 in the assay with A498, with CCRF-CEM, in the assay on HL-60, in the assay on HOP-62, in the assay on MDA-MB-231 and in the assay on MDA-MB-435 was > 100 µM (inactive) each time. The GI50 with MOLT-4, in the assay with NCI-H460, in the assay on NCI-H522, in the assay with NCI/ADR-RES, with OVCAR-5 and in the assay on PC-3 was > 100 µM (inactive) in each case. Also, the GI50 with RPMI-8226, in the assay with SF-268, in the assay with SK-MEL-5, in the assay on SK-OV-3, in the assay on SNB-19 and in the assay with SNB-75 was > 100 µM (inactive) each time. For the same compound, the GI50 in the assay on SR and with UO-31 was > 100 µM (inactive) in each case.

On to `COC1=C(C)C(=O)C2=C(C1=O)C1C3CC4=C(C(=O)C(OC)=C(C)C4=O)C(CNC(=O)C(C)O)N3C(C#N)C(C2)N1C` (stereo not given), for which the GI50 in the assay with A498 is 0.0107 µM (active); in the assay with CCRF-CEM it was < 0.01 µM (active); with HL-60, < 0.01 µM (active); in the assay with HOP-62, 0.0149 µM (active); in the assay with MDA-MB-231, < 0.01 µM (active); in the assay with MDA-MB-435, < 0.01 µM (active). Further, the GI50 with MOLT-4 was < 0.01 µM (active); in the assay on NCI-H460, 0.0159 µM (active); in the assay with NCI-H522, < 0.01 µM (active); in the assay with NCI/ADR-RES it was 1.46 µM (inactive); with OVCAR-5 it was 0.0269 µM (active); with PC-3, < 0.011 µM (active). Also, the GI50 in the assay on RPMI-8226 was < 0.01 µM (active); with SF-268, < 0.01 µM (active); in the assay on SK-MEL-5 it was < 0.01 µM (active); with SK-OV-3, 0.0673 µM (active); with SNB-19, < 0.01 µM (active); with SNB-75 it was < 0.0104 µM (active). In addition, the GI50 in the assay on SR is < 0.01 µM (active); in the assay with UO-31, 0.101 µM (active).

In the case of `CC(NNC(=O)c1cc[n+]([BH2-]C#N)cc1)c1cccc(C(F)(F)F)c1` (stereo not given), the GI50 in the assay with A498 is > 100 µM (inactive); with CCRF-CEM, > 100 µM (inactive); in the assay on HL-60 it was 34.5 µM (inactive); with HOP-62 it was > 100 µM (inactive); with MDA-MB-231, > 100 µM (inactive); in the assay on MDA-MB-435, > 100 µM (inactive). For the same compound, the GI50 in the assay on MOLT-4 is 46.7 µM (inactive); in the assay with NCI-H460, 77.8 µM (inactive); in the assay with NCI-H522, 4.55 µM (inactive); in the assay on NCI/ADR-RES, > 100 µM (inactive); in the assay on OVCAR-5 it was > 100 µM (inactive); with PC-3, 44 µM (inactive). Moreover, the GI50 is 65.2 µM (inactive) with RPMI-8226; > 100 µM (inactive) in the assay on SF-268; 72.1 µM (inactive) in the assay with SK-MEL-5; 26.7 µM (inactive) with SK-OV-3; > 100 µM (inactive) in the assay on SNB-19; > 100 µM (inactive) in the assay on SNB-75. In addition, the GI50 in the assay on SR is 52.1 µM (inactive); in the assay on UO-31, 42 µM (inactive).

The record behind these values is ChEMBL document CHEMBL1201862, “PubChem BioAssay data set” (2004).
